Like-named read-outs stand apart in the source and are kept apart here.
Tests used:
[1] = system: anti-TNP IgE antibody production; assay: IgE antibody production suppressive effect: anti-TNP IgE production by cultured spleen cells of TNP-KLH-immunized mouse; assay type: cell-based, BALB/C mouse; conditions: for Anti-TMP antibody production IgE, value in brackets (IgE production dependency on the antigen) / Anti-TMP antibody production IgE: TNP-KLH 10 ng/ml; for Anti-TMP antibody production IgE, value in brackets (IgE production dependency on the antigen): no addition 8.5; for Anti-TMP antibody production IgE: no addition 13.0
Description: (§1) An 8 weeks old BALB/C mouse (♀) was immunized by an intraperitoneal injection of 10 µg of TNP-KLH (trinitrophenyl-key hole limpet hemocyanine) and 2 mg of aluminum hydroxide gel, and after 3 weeks, 1 µg of TNP-KLH and 2 mg of aluminum hydroxide gel were boosted, and 4 weeks later, the spleen was enucleated.
(§2) The spleen cells (6 x 10⁶) were cultured together with 10 ng/ml of TNP-KLH, in the presence or non-presence of the compound of the present invention (10⁻⁵ to 10⁻⁷ M), in 1 ml of RPMI-1640 medium (containing 10% fetal bovine serum) for 2 days, followed by washing to remove the antigen and the drug, and the washed cells were resuspended in a fresh medium containing no antigen and further cultured for 5 days. All cultivations were performed under 5% CO₂ at 37°C. After completion of the culturing, the supernatant was recovered, and the concentration of anti-TNP IgE or anti-TNP IgG antibody was determined by an antigen and isotype specific immunoassay. […]
The values in the brackets ( ) indicate the values of the spontaneous IgE production amount observed when TNP-KLH was not added, and represent the IgE production dependency on the antigen.
(§3) The same experimental methods were used for the compounds shown below, and IgE antibody production suppressive effects were evaluated. […] (Exemplary compound VI - (1)): methyl (6,7-dimethoxy-2-naphthylthio)acetate (Exemplary compound V - (4)): N-(2-methoxycarbonylphenyl)-(6,7-dihydroxy-2-naphthylthio)acetamide (Exemplary compound V - (2)): N-tetrazolyl(6,7-dihydroxy-2-naphthylthio)acetamide Table 2

anti-TNP IgG = assay: Anti-TNP IgG production by cultured spleen cells of TNP-KLH-immunized mouse; assay type: cell-based, BALB/C mouse; conditions: for Anti-TMP antibody production IgG: TNP-KLH 10 ng/ml, no addition 8.1
Description: as §1, §2, §3

[2] = system: peritoneal mast cells of rat; assay: Histamine release from IgE-sensitized peritoneal mast cells, DNP-As antigen (allergic release); assay type: cell-based, Sprague-Dawley strain male rat
Description: (§4) To a Sprague-Dawley strain male rat (10 weeks or older) was intraperitoneally administered, under ether anesthesia, a diluted rat anti-DNP-As IgE serum at 2 ml/kg. After 16 hours, cells were recovered by washing intraperitoneally with a Tyrode solution containing 0.5% heparin (Ca⁺⁺, Mg⁺⁺, free). Mast cells (5 x 10⁴) separated by overlying in the 30% Ficoll/Tyrode solution and centrifugation were reliberated into the Tyrode solution (Ca⁺⁺, Mg⁺⁺) and incubated with the addition of the drug solution shown in Table 3-1, for 10 minutes, and then DNP-As and phosphatidylserine were added to final concentrations of 20 µg/ml and 25 µg/ml, respectively, followed by incubation for 10 minutes. The reaction was stopped by ice-cooling, and the histamine release in the supernatant was determined by fluorophotometry.

[3] = system: peritoneal mast cells of rat; assay: Histamine release from peritoneal mast cells induced by Compound 48/80 (non-allergic release); assay type: cell-based, Sprague-Dawley strain male rat; conditions: for inhibition at 10 µM: 10⁻⁵ M
Description: as §4, with “fluorophotometry. Regarding the non-allergy release, 5 x 10⁴ of mast cells were investigated by incubation with 0.5 µg/ml of Compound 48/80 for 10 minutes, after the addition of the drug solution shown in Table 3-2.” for “fluorophotometry.”

[4] = system: Rat homologous PCA reaction; assay: Rat homologous PCA reaction; assay type: in vivo, Sprague-Dawley strain male rat; conditions: p.o., 1 hour before antigen
Description: The back of a Sprague-Dawley strain male rat (6 - 8 w) was depilated, and at one site on both sides thereof, 0.1 ml of a rat anti-ovalbumin IgE serum diluted with physiological saline was intradermally injected under ether anesthesia. After 48 hours, 25 mg/kg of ovalbumin, 25 mg/kg of Evans Blue were intravenously administered to induce the PCA reaction, and after 30 minutes, the skin was peeled off, dipped in a mixture of 0.3% Na₂SO₄·10H₂O/Acetate (3:7), and the dye amount infiltrated was quantitated by absorbance at 620 nm. The drug listed in Table 4 was suspended in 5% gum arabic solution and orally administered 1 hour before the antigen administration.

Lipoxygenase = target: T1, Lipoxygenase (Homo sapiens, UniProt P09917); assay: Lipoxygenase inhibitory activity evaluation: LTB4 and 5-HETE production in A23187-stimulated whole blood; assay type: cell-based, healthy man; conditions: 10⁻⁵ M, A23187 25 µM
T1 construct: heparin-treated vein blood of a healthy person; from tissue; host or cells: human heparinised venous whole blood (leukocytes)
T1 sequence (P09917 1-674): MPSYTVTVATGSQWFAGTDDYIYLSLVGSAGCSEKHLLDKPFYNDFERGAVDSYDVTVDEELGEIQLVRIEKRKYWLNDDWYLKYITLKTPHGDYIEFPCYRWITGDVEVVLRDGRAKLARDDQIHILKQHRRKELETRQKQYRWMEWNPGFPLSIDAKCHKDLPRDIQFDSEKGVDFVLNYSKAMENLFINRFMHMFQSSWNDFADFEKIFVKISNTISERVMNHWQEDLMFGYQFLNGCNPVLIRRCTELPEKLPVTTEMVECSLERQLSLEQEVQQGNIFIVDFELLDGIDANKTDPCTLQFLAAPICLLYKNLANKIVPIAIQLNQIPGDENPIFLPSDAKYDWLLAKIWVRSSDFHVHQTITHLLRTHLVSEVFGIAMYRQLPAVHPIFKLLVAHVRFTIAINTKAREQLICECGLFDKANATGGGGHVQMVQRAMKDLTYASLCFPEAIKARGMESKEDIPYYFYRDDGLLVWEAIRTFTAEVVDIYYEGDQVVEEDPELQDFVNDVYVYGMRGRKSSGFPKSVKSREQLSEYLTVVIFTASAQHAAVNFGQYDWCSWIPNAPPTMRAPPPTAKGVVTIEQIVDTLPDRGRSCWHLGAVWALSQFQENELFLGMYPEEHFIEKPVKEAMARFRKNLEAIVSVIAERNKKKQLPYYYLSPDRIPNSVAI
Description: To 1 ml of heparin-treated vein blood of a healthy person without an administration of drugs was added 1 µl of a DMSO solution of the drug test sample listed in Table 5 (final 10⁻⁵ M), and after treatment at 37°C for 5 minutes, 5 µl of a DMSO solution of A23187 was added (final 25 µM) and the treatment carried out at 37°C for 15 minutes, followed by ice-cooling. After the addition of 10 µl of a DMSO solution of 100 ng of 15-HETE as the internal standard substance for quantitation, 0.8 ml of acetonitrile was added, and the precipitates formed were removed by centrifugation. Then, LTB₄ and 5-HETE in the supernatant were subjected to HPLC separation and quantitation (ref. F.J. Sweeney, et al., Prostaglandins Leukotrienes & Med., 28, 73 (1987)).

5-HETE (Inhibitory ratio %) (Lipoxygenase): 60%
LTB₄ (Inhibitory ratio %) (Lipoxygenase): 74%
Amount of LTB₄ produced (Lipoxygenase; no addition 125): 32 ng/ml/plasma
Amount of 5-HETE produced (Lipoxygenase; no addition 130): 52 ng/ml/plasma
SMILES: COC(=O)CSc1ccc2cc(O)c(O)cc2c1 [Exemplary compound IV-(1), Methyl (6,7-dihydroxy-2-naphthylthio)acetate]
suppression of anti-TNP IgE antibody production (in words) ([1]; 10⁻⁵ to 10⁻⁷ M): suppressed the anti-TNP IgE antibody production dose-dependency
Anti-TMP antibody production IgE, value in brackets (IgE production dependency on the antigen) ([1]; 10⁻⁶ M): 1.0 ng/mL
Anti-TMP antibody production IgE ([1]; 10⁻⁶ M): 5.5 ng/mL
Anti-TMP antibody production IgE, value in brackets (IgE production dependency on the antigen) ([1]; 10⁻⁷ M): 2.5 ng/mL
Anti-TMP antibody production IgE ([1]; 10⁻⁷ M): 7.5 ng/mL
suppressive ratio (antigen-dependent IgE production) ([1]; antigen-dependent IgE production compared with spontaneous IgE production): 70 - 90%
suppressive effect against the production of anti-TNP IgG (in words) (anti-TNP IgG): substantially no suppressive effect
Anti-TMP antibody production IgG (anti-TNP IgG; 10⁻⁶ M): 7.3 µg/mL
Anti-TMP antibody production IgG (anti-TNP IgG; 10⁻⁷ M): 7.5 µg/mL
suppressive action against allergy histamine release (in words) [2]: suppressive actions
suppressive action against non-allergy histamine release (in words) [3]: weak suppressive actions
inhibition at 100 µM ([3]; Rattus norvegicus, Mast cell, 10 min, Experiment 1, 10⁻⁴ M, Compound 48/80 0.5 µg/ml, read-out: Inhibitory ratio (%) histamine release): 23%
inhibition at 10 µM ([3]; Rattus norvegicus, Mast cell, 10 min, Experiment 1, Compound 48/80 0.5 µg/ml, read-out: Inhibitory ratio (%) histamine release): 10.5%
inhibition at 1 µM ([3]; Rattus norvegicus, Mast cell, 10 min, Experiment 1, 10⁻⁶ M, Compound 48/80 0.5 µg/ml, read-out: Inhibitory ratio (%) histamine release): -1.9%
inhibition at 10 µM ([3]; Rattus norvegicus, Mast cell, 10 min, Experiment 2, Compound 48/80 0.5 µg/ml, read-out: Inhibitory ratio (%) histamine release): 2%
Suppressive ratio (%) Experiment 1 ([4]; 25 mg/kg): 14.8%
Suppressive ratio (%) Experiment 2 ([4]; 25 mg/kg): 24.2%
Suppressive ratio (%) Experiment 2 ([4]; 50 mg/kg): 31.3%
